Results published in patent publication US11384063B2, “Modulators of estrogen receptor proteolysis and associated methods of use” (Arvinas Operations, Inc., priority 2017, dated 2022).
Read-outs that look alike come from different tables or passages of the source.

Biological target: T1, ERα (Homo sapiens, UniProt P03372)
T1 sequence (P03372 1-595): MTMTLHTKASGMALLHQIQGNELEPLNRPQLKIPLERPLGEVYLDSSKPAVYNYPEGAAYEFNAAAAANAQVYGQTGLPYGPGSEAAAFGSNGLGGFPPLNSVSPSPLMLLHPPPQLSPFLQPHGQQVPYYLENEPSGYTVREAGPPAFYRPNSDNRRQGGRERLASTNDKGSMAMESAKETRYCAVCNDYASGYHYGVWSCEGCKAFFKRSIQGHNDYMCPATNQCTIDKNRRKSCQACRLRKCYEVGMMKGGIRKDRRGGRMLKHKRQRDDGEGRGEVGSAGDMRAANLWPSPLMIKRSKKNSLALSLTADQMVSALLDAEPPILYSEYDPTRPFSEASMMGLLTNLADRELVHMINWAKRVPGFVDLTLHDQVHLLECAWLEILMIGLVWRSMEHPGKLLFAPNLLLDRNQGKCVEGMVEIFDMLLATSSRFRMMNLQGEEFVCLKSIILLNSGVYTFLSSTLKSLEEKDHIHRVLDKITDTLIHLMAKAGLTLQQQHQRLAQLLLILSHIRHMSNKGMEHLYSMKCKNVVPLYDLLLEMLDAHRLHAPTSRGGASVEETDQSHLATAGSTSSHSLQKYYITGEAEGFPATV
Assay: ERE luciferase reporter gene assay in T47D-KBluc cells (target engagement)
Type: cell-based
Parameters: T47D human breast cancer cells stably transfected with estrogen responsive element/promoter/luciferase reporter gene; host or cells: T47D-KBluc cells
Details: 10% FBS, 24 hours
Procedure: Chimeric molecules were assessed for target engagement in T47D cells using the commercial kit of ERE luciferase reporter gene assay. In the assay, 10% FBS was included and estrogen level was measured to be 10 pM.
ERE Luciferase Assay for Compounds in Table 1-3.
T47D-KBluc cells (ATCC #CRL_2865, T47D human breast cancer cells stably transfected with estrogen responsive element/promoter/luciferase reporter gene) were seeded into 96-well white opaque plates in RPMI growth medium supplemented with 10% fetal bovine serum and allowed to adhere overnight in a 37° C. humidified incubator. The following day, cells were treated with PROTACs in a 12-point concentration curve (top final concentration of 300 nM with subsequent concentrations being 3-fold less with 2 pM being the lowest concentration in the assay). Each PROTAC was tested independently in two experiments on 96-well plates. After 24 hours, media was removed and lysis buffer was added to the wells. Following lysis, Bright-Glo™ Luciferase Assay Substrate (Prornega, Madison Wis.) was added and the luciferase activity was measured using a Cytation 3 plate reader (TioTek™, Winooski, Vt.). Each compound was assayed in duplicates and the activity was calculated as IC50 using GraphPad Prism software (San Diego, Calif.).

[1] = Table 2 VHL centric PROTACs, read-out: IC50
[2] = Table 3 cereblon centric PROTACs, read-out: ER-α Luciferase IC50

Row | Structure (SMILES) | IC50 [1] | IC50 [2]
1 | Cc1ncoc1-c1ccc([C@H](C)NC(=O)[C@@H]2C[C@@H](O)CN2C(=O)[C@@H](NC(=O)COCCOCCOCCOc2ccc(Oc3c(-c4ccc(Cl)cc4)sc4cc(O)ccc34)cc2)C(C)(C)C)cc1 [Compound 120] | 4.1 nM | –
2 | Cc1ncsc1-c1ccc(CNC(=O)[C@@H]2C[C@@H](O)CN2C(=O)[C@@H](NC(=O)CCCN2CC3CN(CCOc4ccc(Oc5c(-c6ccc(F)cc6)sc6cc(O)ccc56)cc4)CC3C2)C(C)(C)C)cc1 (stereo partly shown) [Compound 122] | > 100 nM | –
3 | Cc1ncsc1-c1ccc(CNC(=O)[C@@H]2C[C@@H](O)CN2C(=O)[C@@H](NC(=O)COCCO[C@H]2CCN(CCOc3ccc(Oc4c(-c5ccc(F)cc5)sc5cc(O)ccc45)cc3)C2)C(C)(C)C)cc1 [Compound 123] | 5.5 nM | –
4 | Cc1ncsc1-c1ccc(CNC(=O)[C@@H]2C[C@@H](O)CN2C(=O)[C@@H](NC(=O)CCCC(=O)N2CCN(CCOc3ccc(Oc4c(-c5ccc(F)cc5)sc5cc(O)ccc45)cc3)[C@@H](C)C2)C(C)(C)C)cc1 [Compound 124] | 2.2 nM | –
5 | Cc1ncsc1-c1ccc(CNC(=O)[C@@H]2C[C@@H](O)CN2C(=O)[C@@H](NC(=O)CCCC(=O)N2CCN(CCOc3ccc(Oc4c(-c5ccc(F)cc5)sc5cc(O)ccc45)cc3)[C@H](C)C2)C(C)(C)C)cc1 [Compound 125] | 1.6 nM | –
6 | Cc1ncsc1-c1ccc(CNC(=O)[C@@H]2C[C@@H](O)CN2C(=O)[C@@H](NC(=O)CCCOCC2CCN(CCOc3ccc(Oc4c(-c5ccc(F)cc5)sc5cc(O)ccc45)cc3)C2)C(C)(C)C)cc1 (stereo partly shown) [Compound 131] | 0.4 nM | –
7 | C[C@H](NC(=O)[C@@H]1C[C@@H](O)CN1C(=O)[C@@H](NC(=O)COCCOCCOCCOc1ccc(Oc2c(-c3ccc(F)cc3)sc3cc(O)ccc23)cc1)C(C)(C)C)c1ccc(C#N)cc1 [Compound 132] | 1.3 nM | –
8 | CC(C)(C)[C@H](NC(=O)COCCOCCOCCOc1ccc(Oc2c(-c3ccc(F)cc3)sc3cc(O)ccc23)cc1)C(=O)N1C[C@H](O)C[C@H]1C(=O)NCc1ccc(C#N)cc1 [Compound 136] | 1.5 nM | –
9 | Cc1ncsc1-c1ccc(CNC(=O)[C@@H]2C[C@@H](O)CN2C(=O)[C@@H](NC(=O)CCCOC2CCN(CCOc3ccc(Oc4c(-c5ccc(F)cc5)sc5cc(O)ccc45)cc3)CC2)C(C)(C)C)cc1 [Compound 137] | 87 nM | –
10 | CC(C)(C)[C@H](NC(=O)COCCOCCN1CCC(c2ccc(Oc3c(-c4ccc(F)cc4)sc4cc(O)ccc34)cc2)CC1)C(=O)N1C[C@H](O)C[C@H]1C(=O)NCc1ccc(C#N)cc1 [Compound 143] | 32 nM | –
11 | CC(C)(C)[C@H](NC(=O)COCCOCCN1CCC(c2ccc(Oc3c(-c4ccc(F)cc4)sc4cc(O)ccc34)cc2)CC1)C(=O)N1C[C@H](O)C[C@H]1C(=O)NCc1ccc(Cl)cc1 [Compound 144] | > 100 nM | –
12 | CC(C)(C)[C@H](NC(=O)Cc1ccc(-c2ccn(CCOc3ccc(Oc4c(-c5ccc(F)cc5)sc5cc(O)ccc45)cc3)n2)cc1)C(=O)N1C[C@H](O)C[C@H]1C(=O)NCc1ccc(C#N)cc1 [Compound 145] | 97 nM | –
13 | CC(C)(C)[C@H](NC(=O)Cc1ccc(-c2ccn(CCOc3ccc(Oc4c(-c5ccc(F)cc5)sc5cc(O)ccc45)cc3)n2)cc1)C(=O)N1C[C@H](O)C[C@H]1C(=O)NCc1ccc(Cl)cc1 [Compound 146] | > 100 nM | –
14 | C[C@H](NC(=O)[C@@H]1C[C@@H](O)CN1C(=O)[C@@H](NC(=O)COCCOCCN1CCC(c2ccc(Oc3c(-c4ccc(F)cc4)sc4cc(O)ccc34)cc2)CC1)C(C)(C)C)c1ccc(Cl)cc1 [Compound 148] | > 100 nM | –
15 | Cc1ncsc1-c1ccc(CNC(=O)[C@H]2C[C@H](O)CN2C(=O)[C@@H](NC(=O)COCCN2CCN(CCOc3ccc(Oc4c(-c5ccc(Br)cc5)sc5cc(O)ccc45)cc3)CC2)C(C)(C)C)cc1 [Compound 152] | > 100 nM | –
16 | COc1ccc2c(Oc3ccc(OCCN4CCN(CCOCC(=O)N[C@H](C(=O)N5C[C@H](O)C[C@H]5C(=O)NCc5ccc(-c6scnc6C)cc5)C(C)(C)C)CC4)cc3)c(-c3ccc(Br)cc3)sc2c1 [Compound 154] | > 100 nM | –
17 | COc1ccc2c(Oc3ccc(OCCN4CCN(CCOCC(=O)N[C@H](C(=O)N5C[C@H](O)C[C@H]5C(=O)N[C@@H](C)c5ccc(-c6scnc6C)cc5)C(C)(C)C)CC4)cc3)c(-c3ccc(Br)cc3)sc2c1 [Compound 155] | > 100 nM | –
18 | Cc1ncsc1-c1ccc(CNC(=O)[C@@H]2CCCN2C(=O)[C@@H](NC(=O)COCCN2CCN(CCOc3ccc(Oc4c(-c5ccc(Br)cc5)sc5cc(O)ccc45)cc3)CC2)C(C)(C)C)cc1 [Compound 156] | > 100 nM | –
19 | COc1ccc2c(Oc3ccc(OCCN4CCN(CCOCC(=O)N[C@H](C(=O)N5CCC[C@H]5C(=O)NCc5ccc(-c6scnc6C)cc5)C(C)(C)C)CC4)cc3)c(-c3ccc(Br)cc3)sc2c1 [Compound 157] | > 100 nM | –

Row | Structure (SMILES) | IC50 [1] | IC50 [2]
20 | COc1ccc2c(Oc3ccc(OCCN4CCN(CCOCC(=O)N[C@H](C(=O)N5CC(=O)C[C@H]5C(=O)NCc5ccc(-c6scnc6C)cc5)C(C)(C)C)CC4)cc3)c(-c3ccc(Br)cc3)sc2c1 [Compound 159] | > 100 nM | –
21 | Cc1ncsc1-c1ccc(CNC(=O)[C@@H]2C[C@@H](O)CN2C(=O)[C@H](c2cc(OCCN3CCN(CCOc4ccc(Oc5c(-c6ccc(Br)cc6)sc6cc(O)ccc56)cc4)CC3)no2)C(C)C)cc1 [Compound 163] | > 100 nM | –
22 | O=C1CCC(N2Cc3cc(NCCCOCCCOCCCOc4ccc(Oc5c(-c6ccc(Br)cc6)sc6cc(O)ccc56)cc4)ccc3C2=O)C(=O)N1 (stereo not shown) [Compound 170] | – | 5.6 nM
23 | O=C1CCC(N2Cc3cc(NCCCOCCOCCOc4ccc(Oc5c(-c6ccc(Br)cc6)sc6cc(O)ccc56)cc4)ccc3C2=O)C(=O)N1 (stereo not shown) [Compound 171] | – | 8.7 nM
24 | O=C1CCC(N2C(=O)c3ccc(NCCCOCCCOCCOc4ccc(Oc5c(-c6ccc(Br)cc6)sc6cc(O)ccc56)cc4)cc3C2=O)C(=O)N1 (stereo not shown) [Compound 172] | – | 15.7 nM
25 | O=C1CCC(N2Cc3cc(NCCCOCCCOCCCCOc4ccc(Oc5c(-c6ccc(Br)cc6)sc6cc(O)ccc56)cc4)ccc3C2=O)C(=O)N1 (stereo not shown) [Compound 173] | – | 8 nM
26 | O=C1CCC(N2C(=O)c3ccc(OCCCOCCCOCCCCOc4ccc(Oc5c(-c6ccc(Br)cc6)sc6cc(O)ccc56)cc4)cc3C2=O)C(=O)N1 (stereo not shown) [Compound 175] | – | 66.7 nM
27 | O=C1CCC(N2C(=O)c3ccc(NCCCOCCCOCCCCOc4ccc(Oc5c(-c6ccc(Br)cc6)sc6cc(O)ccc56)cc4)cc3C2=O)C(=O)N1 (stereo not shown) [Compound 176] | – | 28.7 nM
28 | O=C1CCC(N2C(=O)c3ccc(N4CCN(CCC5CN(CCOc6ccc(Oc7c(-c8ccc(Br)cc8)sc8cc(O)ccc78)cc6)C5)CC4)cc3C2=O)C(=O)N1 (stereo not shown) [Compound 186] | – | > 300 nM
29 | O=C1CCC(N2Cc3cc(N4CCC(CN5CCC(Oc6ccc(Oc7c(-c8ccc(C(F)(F)F)cc8)sc8cc(O)ccc78)cc6)CC5)CC4)ccc3C2=O)C(=O)N1 (stereo not shown) [Compound 187] | – | 5.1 nM
30 | O=C1CCC(N2C(=O)c3ccc(N4CCC(CN5CCC(Oc6ccc(Oc7c(-c8ccc(C(F)(F)F)cc8)sc8cc(O)ccc78)cc6)CC5)CC4)cc3C2=O)C(=O)N1 (stereo not shown) [Compound 188] | – | 8.7 nM
31 | O=C1CCC(N2C(=O)c3ccc(N4CC(CN5CCN(CCOc6ccc(Oc7c(-c8ccc(Br)cc8)sc8cc(O)ccc78)cc6)CC5)C4)cc3C2=O)C(=O)N1 (stereo not shown) [Compound 189] | – | 3 nM
32 | O=C1CCC(N2Cc3c(ccc(N4CCN(C5CCN(CCOc6ccc(Oc7c(-c8ccc(Br)cc8)sc8cc(O)ccc78)cc6)CC5)CC4)c3F)C2=O)C(=O)N1 (stereo not shown) [Compound 195] | – | 2.9 nM
33 | O=C1CCC(N2Cc3cc(C4CCN(C5CCN(CCOc6ccc(Oc7c(-c8ccc(Br)cc8)sc8cc(O)ccc78)cc6)CC5)CC4)ccc3C2=O)C(=O)N1 (stereo not shown) [Compound 196] | – | 8.6 nM
34 | O=C1CCC(N2C(=O)c3ccc(CCCCN4CCCN(CCOc5ccc(Oc6c(-c7ccc(Br)cc7)sc7cc(O)ccc67)cc5)CC4)cc3C2=O)C(=O)N1 (stereo not shown) [Compound 197] | – | 2.8 nM
35 | O=C1CCC(N2Cc3cc(N4CCN(C5CC6(C5)CN(CCOc5ccc(Oc7c(-c8ccc(C(F)(F)F)cc8)sc8cc(O)ccc78)cc5)C6)CC4)ccc3C2=O)C(=O)N1 (stereo not shown) [Compound 198] | – | 10.2 nM
36 | O=C1CCC(N2Cc3cc(N4CCN(CC5CCN(CCOc6ccc(Oc7c(-c8ccc(C(F)(F)F)cc8)sc8cc(O)ccc78)cc6)CC5)CC4)ccc3C2=O)C(=O)N1 (stereo not shown) [Compound 200] | – | 8.4 nM
37 | O=C1CCC(N2C(=O)c3ccc(N4CCN(CC5CCN(CCOc6ccc(Oc7c(-c8ccc(C(F)(F)F)cc8)sc8cc(O)ccc78)cc6)CC5)CC4)cc3C2=O)C(=O)N1 (stereo not shown) [Compound 202] | – | 14.8 nM
